Data taken from BindingDB's records for doi:10.1016/s0960-894x(01)00378-x (The R. W. Johnson Pharmaceutical Research Institute, 2001).

Legend:
[1] = In vitro inhibition of human platelet aggregation induced by alpha-thrombin (at a concentration of 0.15 nM)
[2] = In vitro inhibition of human platelet aggregation induced by SFLLRN-NH2 (at a concentration of 2 uM)
[3] = In vitro inhibition of human platelet aggregation induced by alpha-thrombin (at a concentration of 0.15 nM); remark: listed apart in the source
[4] = biological target: T1, Proteinase-activated receptor 1 (Homo sapiens, UniProt P25116); experiment: In vitro inhibition of human platelet aggregation induced by alpha-thrombin (at a concentration of 0.15 nM)
T1 sequence (P25116 whole entry): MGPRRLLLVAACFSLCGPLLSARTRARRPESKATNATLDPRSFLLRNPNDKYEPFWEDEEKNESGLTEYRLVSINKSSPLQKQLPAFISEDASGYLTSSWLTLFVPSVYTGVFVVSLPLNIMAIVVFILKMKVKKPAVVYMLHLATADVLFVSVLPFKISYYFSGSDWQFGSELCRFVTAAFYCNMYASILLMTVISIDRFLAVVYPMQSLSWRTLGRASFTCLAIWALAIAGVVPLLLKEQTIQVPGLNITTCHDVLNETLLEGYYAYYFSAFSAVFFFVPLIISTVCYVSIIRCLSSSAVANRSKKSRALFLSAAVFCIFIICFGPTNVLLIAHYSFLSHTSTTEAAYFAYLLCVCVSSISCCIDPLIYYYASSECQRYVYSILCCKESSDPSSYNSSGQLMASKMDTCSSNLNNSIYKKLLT

[5] = biological target: T1, Proteinase-activated receptor 1; experiment: In vitro inhibition of human platelet aggregation induced by SFLLRN-NH2 (at a concentration of 2 uM)

| Compound | IC50 [1] [nM] | IC50 [2] [nM] | further results |
| --- | --- | --- | --- |
| COc1ccc(C[C@H](NC(=O)Nc2ccc3c(CN4CCCC4)cn(Cc4ccc(F)cc4)c3c2)C(=O)N[C@@H](CCCNC(=N)N)C(=O)NCc2ccccc2)cc1 [2-[2-{3-[1-(4-Fluoro-benzyl)-3-pyrrolidin-1-ylmethyl-1H-indol-6-yl]-ureido}-3-(4-methoxy-phenyl)-propionylamino]-5-guanidino-pentanoic acid benzylamide] | 2320 | 270 |  |
| COC(=O)c1ccc(Cn2cc(CN3CCCC3)c3ccc(NC(=O)N[C@@H](Cc4ccc(OC)cc4)C(=O)N[C@@H](CCCNC(=N)N)C(=O)NCC4CCCCC4)cc32)cc1 [4-(6-{3-[(S)-1-[(S)-1-(Cyclohexylmethyl-carbamoyl)-4-guanidino-butylcarbamoyl]-2-(4-methoxy-phenyl)-ethyl]-ureido}-3-pyrrolidin-1-ylmethyl-indol-1-ylmethyl)-benzoic acid methyl ester] |  |  | IC50 [3]: 38700 nM |
| NCCC(NC(=O)[C@H](Cc1ccc(F)c(F)c1)NC(=O)Nc1ccc2c(CN3CCCC3)cn(Cc3c(Cl)cccc3Cl)c2c1)C(=O)NCc1ccccc1 (stereo partly drawn) [4-Amino-N-benzyl-2-[(S)-2-{3-[1-(2,6-dichloro-benzyl)-3-pyrrolidin-1-ylmethyl-1H-indol-6-yl]-ureido}-3-(3,4-difluoro-phenyl)-propionylamino]-butyramide] | 340 | 160 |  |
| Cc1ccccc1Cn1cc(CN2CCCC2)c2ccc(NC(=O)N[C@@H](Cc3ccc(C#N)cc3)C(=O)N[C@@H](CCCNC(=N)N)C(=O)NCc3ccccc3)cc21 [(S)-2-((S)-3-(4-Cyano-phenyl)-2-{3-[1-(2-methyl-benzyl)-3-pyrrolidin-1-ylmethyl-1H-indol-6-yl]-ureido}-propionylamino)-5-guanidino-pentanoic acid benzylamide] | 620 | 600 |  |
| N=C(N)NCCC[C@H](NC(=O)[C@H](Cc1ccc(F)c(F)c1)NC(=O)Nc1ccc2c(CN3CCCC3)cn(Cc3c(Cl)cccc3Cl)c2c1)C(=O)NCc1ccccc1 [(S)-2-[(S)-2-{3-[1-(2,6-Dichloro-benzyl)-3-pyrrolidin-1-ylmethyl-1H-indol-6-yl]-ureido}-3-(3,4-difluoro-phenyl)-propionylamino]-5-guanidino-pentanoic acid benzylamide] |  |  | IC50 [3]: 570 nM |
| COc1ccc(C[C@H](NC(=O)Nc2ccc3c(CN4CCCC4)cn(Cc4ccccc4Cl)c3c2)C(=O)N[C@@H](CCCNC(=N)N)C(=O)NCCCc2ccccc2)cc1 [(S)-2-[(S)-2-{3-[1-(2-Chloro-benzyl)-3-pyrrolidin-1-ylmethyl-1H-indol-6-yl]-ureido}-3-(4-methoxy-phenyl)-propionylamino]-5-guanidino-pentanoic acid (3-phenyl-propyl)-amide] | 2600 | 140 |  |
| COc1ccc(C[C@H](NC(=O)Nc2ccc3c(CN4CCCC4)cn(Cc4ccc(F)cc4)c3c2)C(=O)N[C@@H](CCCNC(=N)N)C(=O)NCCCc2ccccc2)cc1 [(S)-2-[(S)-2-{3-[1-(4-Fluoro-benzyl)-3-pyrrolidin-1-ylmethyl-1H-indol-6-yl]-ureido}-3-(4-methoxy-phenyl)-propionylamino]-5-guanidino-pentanoic acid (3-phenyl-propyl)-amide] | 8500 | 600 |  |
| COc1ccc(C[C@H](NC(=O)Nc2ccc3c(CN4CCCC4)cn(Cc4ccc(F)cc4)c3c2)C(=O)N[C@@H](CCCNC(=N)N)C(=O)NCC2CCCCC2)cc1 [(S)-2-[(S)-2-{3-[1-(4-Fluoro-benzyl)-3-pyrrolidin-1-ylmethyl-1H-indol-6-yl]-ureido}-3-(4-methoxy-phenyl)-propionylamino]-5-guanidino-pentanoic acid cyclohexylmethyl-amide] | 4400 |  |  |
| NC(N)=NCCCC(NC(=O)C(Cc1ccc([N+](=O)[O-])cc1)NC(=O)Nc1ccc2c(CN3CCCC3)cn(Cc3ccc(F)cc3)c2c1)C(=O)NCc1ccccc1 [(S)-2-[(S)-2-{3-[1-(4-Fluoro-benzyl)-3-pyrrolidin-1-ylmethyl-1H-indol-6-yl]-ureido}-3-(4-nitro-phenyl)-propionylamino]-5-guanidino-pentanoic acid benzylamide] |  |  | IC50 [4]: 6100 nM; IC50 [5]: 130 nM |
| CCN(CC)Cc1cn(Cc2ccccc2C)c2cc(NC(=O)N[C@@H](Cc3ccc(OC)cc3)C(=O)N[C@@H](CCCNC(=N)N)C(=O)NCCCc3ccccc3)ccc12 [(S)-2-[(S)-2-{3-[3-Diethylaminomethyl-1-(2-methyl-benzyl)-1H-indol-6-yl]-ureido}-3-(4-methoxy-phenyl)-propionylamino]-5-guanidino-pentanoic acid (3-phenyl-propyl)-amide] |  | 230 | IC50 [3]: 3000 nM |
| CCN(CC)Cc1cn(Cc2cccc(C)c2)c2cc(NC(=O)N[C@@H](Cc3ccc(OC)cc3)C(=O)N[C@@H](CCCNC(=N)N)C(=O)NCCCc3ccccc3)ccc12 [(S)-2-[(S)-2-{3-[3-Diethylaminomethyl-1-(3-methyl-benzyl)-1H-indol-6-yl]-ureido}-3-(4-methoxy-phenyl)-propionylamino]-5-guanidino-pentanoic acid (3-phenyl-propyl)-amide] | 1300 | 210 |  |
| CCN(CC)Cc1cn(Cc2ccc(F)cc2)c2cc(NC(=O)N[C@@H](Cc3ccc(OC)cc3)C(=O)N[C@@H](CCCNC(=N)N)C(=O)NCC3CCCCC3)ccc12 [(S)-2-[(S)-2-{3-[3-Diethylaminomethyl-1-(4-fluoro-benzyl)-1H-indol-6-yl]-ureido}-3-(4-methoxy-phenyl)-propionylamino]-5-guanidino-pentanoic acid cyclohexylmethyl-amide] | 11100 | 900 |  |
| COc1ccc(C[C@H](NC(=O)Nc2ccc3c(CN4CCCCC4)cn(Cc4ccccc4C)c3c2)C(=O)N[C@@H](CCCNC(=N)N)C(=O)NCCCc2ccccc2)cc1 [(S)-5-Guanidino-2-((S)-3-(4-methoxy-phenyl)-2-{3-[1-(2-methyl-benzyl)-3-piperidin-1-ylmethyl-1H-indol-6-yl]-ureido}-propionylamino)-pentanoic acid (3-phenyl-propyl)-amide] | 4800 | 310 |  |
| COc1ccc(C[C@H](NC(=O)Nc2ccc3c(CN4CCCCC4)cn(Cc4cccc(C)c4)c3c2)C(=O)N[C@@H](CCCNC(=N)N)C(=O)NCC2CCCCC2)cc1 [(S)-5-Guanidino-2-((S)-3-(4-methoxy-phenyl)-2-{3-[1-(3-methyl-benzyl)-3-piperidin-1-ylmethyl-1H-indol-6-yl]-ureido}-propionylamino)-pentanoic acid cyclohexylmethyl-amide] | 11700 | 900 |  |
| COc1ccc(C[C@H](NC(=O)Nc2ccc3c(CN4CCCCC4)cn(Cc4ccc(OC(F)(F)F)cc4)c3c2)C(=O)N[C@@H](CCCNC(=N)N)C(=O)NCC2CCCCC2)cc1 [(S)-5-Guanidino-2-((S)-3-(4-methoxy-phenyl)-2-{3-[3-piperidin-1-ylmethyl-1-(4-trifluoromethoxy-benzyl)-1H-indol-6-yl]-ureido}-propionylamino)-pentanoic acid cyclohexylmethyl-amide] | 36500 |  |  |
| Cc1ccccc1Cn1cc(CN2CCCC2)c2ccc(NC(=O)NC(Cc3ccc([N+](=O)[O-])cc3)C(=O)NC(CCCNC(=N)N)C(=O)NCc3ccccc3)cc21 [(S)-5-Guanidino-2-[(S)-2-{3-[1-(2-methyl-benzyl)-3-pyrrolidin-1-ylmethyl-1H-indol-6-yl]-ureido}-3-(4-nitro-phenyl)-propionylamino]-pentanoic acid benzylamide] |  |  | IC50 [5]: 150 nM |
| NCCCC[C@H](NC(=O)[C@H](Cc1ccc(F)c(F)c1)NC(=O)Nc1ccc2c(CN3CCCC3)cn(Cc3c(Cl)cccc3Cl)c2c1)C(=O)NCc1ccccc1 [(S)-6-Amino-2-[(S)-2-{3-[1-(2,6-dichloro-benzyl)-3-pyrrolidin-1-ylmethyl-1H-indol-6-yl]-ureido}-3-(3,4-difluoro-phenyl)-propionylamino]-hexanoic acid benzylamide] |  | 100 | IC50 [3]: 700 nM |
| O=C(Nc1ccc2c(CN3CCCC3)cn(Cc3c(Cl)cccc3Cl)c2c1)N[C@@H](Cc1ccc(F)c(F)c1)C(=O)NC(Cc1cnc[nH]1)C(=O)NCc1ccccc1 (stereo partly drawn) [(S)-N-[1-Benzylcarbamoyl-2-(3H-imidazol-4-yl)-ethyl]-2-{3-[1-(2,6-dichloro-benzyl)-3-pyrrolidin-1-ylmethyl-1H-indol-6-yl]-ureido}-3-(3,4-difluoro-phenyl)-propionamide] |  | 200 | IC50 [3]: 460 nM |
| CSCCC(NC(=O)[C@H](Cc1ccc(F)c(F)c1)NC(=O)Nc1ccc2c(CN3CCCC3)cn(Cc3c(Cl)cccc3Cl)c2c1)C(=O)NCc1ccccc1 (stereo partly drawn) [N-Benzyl-2-[(S)-2-{3-[1-(2,6-dichloro-benzyl)-3-pyrrolidin-1-ylmethyl-1H-indol-6-yl]-ureido}-3-(3,4-difluoro-phenyl)-propionylamino]-4-methylsulfanyl-butyramide] |  | 400 |  |
| COc1ccc(C[C@H](NC(=O)Nc2ccc3c(CN4CCCC4)cn(Cc4c(Cl)cccc4Cl)c3c2)C(=O)N[C@@H](CCCN=C(N)N)C(=O)NCc2ccccc2)cc1 [RWJ-54003] |  |  | IC50 [4]: 900 nM |
